Biological target: T1, SIRT1 (Homo sapiens, UniProt Q96EB6)
T1 sequence (Q96EB6 1-747): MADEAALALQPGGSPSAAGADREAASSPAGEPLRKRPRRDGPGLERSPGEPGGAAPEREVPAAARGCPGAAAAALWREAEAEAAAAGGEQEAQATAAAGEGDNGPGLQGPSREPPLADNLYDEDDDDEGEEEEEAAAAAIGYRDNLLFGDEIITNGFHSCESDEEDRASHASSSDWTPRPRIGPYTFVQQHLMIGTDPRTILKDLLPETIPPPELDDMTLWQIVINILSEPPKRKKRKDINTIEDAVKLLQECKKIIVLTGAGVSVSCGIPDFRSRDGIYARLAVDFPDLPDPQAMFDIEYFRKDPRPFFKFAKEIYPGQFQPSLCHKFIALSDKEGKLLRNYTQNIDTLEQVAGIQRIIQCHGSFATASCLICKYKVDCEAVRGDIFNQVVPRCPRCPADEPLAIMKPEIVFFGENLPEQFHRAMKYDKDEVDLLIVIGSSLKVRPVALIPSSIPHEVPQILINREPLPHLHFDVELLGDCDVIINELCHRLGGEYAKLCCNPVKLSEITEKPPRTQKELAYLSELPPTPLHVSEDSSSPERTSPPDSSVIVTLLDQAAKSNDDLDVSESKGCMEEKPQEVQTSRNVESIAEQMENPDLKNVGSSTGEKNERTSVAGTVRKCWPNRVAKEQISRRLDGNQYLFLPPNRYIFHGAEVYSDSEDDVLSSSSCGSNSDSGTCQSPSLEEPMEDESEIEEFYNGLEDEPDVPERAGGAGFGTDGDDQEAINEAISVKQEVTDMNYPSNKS
Assay: mass spectrometry based SIRT1 deacetylation assay (activation)
Type: biochemical
Details: 0.5 μM peptide substrate, 120 μM βNAD+, 10 nM SIRT1, 25 min at 25° C.; for EC1.5 (concentration of test compound that results in 150% activation of SIRT1): NA = not active in the assay; for Emax: read-out: % FOLD ACT. (percent maximum fold activation of SIRT1)

SMILES	EC1.5 (concentration of test compound that results in 150% activation of SIRT1)	Emax
COCCN1CCN(Cc2cnc3sc(-c4ccccc4NC(=O)c4cccc(-c5ccccc5C(F)(F)F)n4)nc3c2)CC1 [Compound 139]	230 NM	457%
COCCN1CCN(Cc2cnc3sc(-c4ccccc4NC(=O)c4cccc(-c5cccc(C(F)(F)F)c5)n4)nc3c2)CC1 [Compound 140]	41 NM	500%
COCCN1CCN(Cc2cnc3sc(-c4ccccc4NC(=O)c4cccc(-c5ccc(F)cc5)n4)nc3c2)CC1 [Compound 141]	127 NM	487%
COCCN1CCN(Cc2cnc3sc(-c4ccccc4NC(=O)c4cccc(-c5ccc(F)cc5F)n4)nc3c2)CC1 [Compound 142]	394 NM	378%
COCCN1CCN(Cc2cnc3sc(-c4ccccc4NC(=O)c4cccc(-c5ccccc5C#N)n4)nc3c2)CC1 [Compound 143]	2121 NM	372%
COCCN1CCN(Cc2cnc3sc(-c4ccccc4NC(=O)c4cccc(-c5ccc(C#N)cc5)n4)nc3c2)CC1 [Compound 144]	559 NM	402%
COCCN1CCN(Cc2cnc3sc(-c4ccccc4NC(=O)c4cccc(-c5cc(F)ccc5F)n4)nc3c2)CC1 [Compound 145]	86 NM	500%
COCCN1CCN(Cc2cnc3sc(-c4ccccc4NC(=O)c4cccc(-c5cccc(F)c5F)n4)nc3c2)CC1 [Compound 146]	127 NM	500%
[2H]c1c([2H])c([2H])c(-c2cccc(C(=O)Nc3ccccc3-c3nc4cc(CN5CCCC5)cnc4s3)c2)c([2H])c1[2H] [Compound 147]	845 NM	224%
COCCN1CCN(Cc2cnc3sc(-c4ccccc4NC(=O)c4cccc(-c5cccc(C#N)c5)n4)nc3c2)CC1 [Compound 148]	40 NM	500%
O=C(Nc1ccccc1-c1nc2cc(CN3CCCC3=O)cnc2s1)c1cccc(-c2ccccc2)c1 [Compound 149]	557 NM	216%
Cn1cc(-c2ccccc2)cc1C(=O)Nc1ccccc1-c1nc2cc(CN3CCOCC3)cnc2s1 [Compound 150]	67 NM	267%
Cn1cc(-c2ccccc2)cc1C(=O)Nc1ccccc1-c1nc2cc(CN3CCCC3)cnc2s1 [Compound 151]	591 NM	170%
COCCN1CCN(Cc2cnc3sc(-c4ccccc4NC(=O)c4cc(-c5ccccc5)n[nH]4)nc3c2)CC1 [Compound 152]	321 NM	> 500%
O=C(Nc1ccccc1-c1nc2cc(CN3CCCC3)cnc2s1)c1cc(-c2ccccc2)n[nH]1 [Compound 153]	829 NM	226%
O=C(Nc1ccccc1-c1nc2cc(CN3CCCC3)cnc2s1)c1ccn(-c2ccccc2)n1 [Compound 154]	428 NM	277%
COCCN1CCN(Cc2cnc3sc(-c4ccccc4NC(=O)c4ccn(-c5ccccc5)n4)nc3c2)CC1 [Compound 155]	141 NM	364%
O=C(Nc1ccccc1-c1nc2cc(CN3CCOCC3)cnc2s1)c1ccn(-c2ccccc2)n1 [Compound 156]	674 NM	443%

From patent US8268862B2, “Sirtuin modulating compounds” (Sirtris Pharmaceuticals, Inc., priority 2007, dated 2012)
